Results: paper PMC13395416 (PLOS Pathogens, 2026)
Ends that are not written are not given here. * marks the point of attachment. Biotin = O=C1N[C@H]2[C@H](CS[C@H]2CCCCC(=O)*)N1

B1: N-terminally biotinylated FMNL1 peptide (K190-K213) (peptide, UniProt O95466 190-213, looked up)
peptide: Biotin-KGPPSSVPKSRHLTIKLTPAHSRK

Experiments:
SteC1-457 = biological target: T1, SteC1-457 (Salmonella enterica, UniProt D0ZIB5); conditions: 5 μM MYL12A, 100 μM ATP with 20 kBq [γ-32P]ATP, 100 nM kinase, 10 mM MgCl2, pH 7.5, 30 °C
T1 construct: gene steC

[1] = biological target: SteC_(210-429) WT, minimal active kinase domain (Salmonella Typhimurium strain 14028s, UniProt D0ZIB5 210-429); assay: BLI; conditions: both partners purified
Sequence of SteC_(210-429) WT, minimal active kinase domain (D0ZIB5 210-429): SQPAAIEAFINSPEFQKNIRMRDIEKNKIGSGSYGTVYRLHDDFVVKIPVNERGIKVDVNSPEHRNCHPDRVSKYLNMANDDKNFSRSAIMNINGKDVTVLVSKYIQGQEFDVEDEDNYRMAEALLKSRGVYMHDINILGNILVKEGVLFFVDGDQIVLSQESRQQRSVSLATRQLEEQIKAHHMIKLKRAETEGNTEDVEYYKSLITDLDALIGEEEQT

T1 sequence (D0ZIB5 whole entry): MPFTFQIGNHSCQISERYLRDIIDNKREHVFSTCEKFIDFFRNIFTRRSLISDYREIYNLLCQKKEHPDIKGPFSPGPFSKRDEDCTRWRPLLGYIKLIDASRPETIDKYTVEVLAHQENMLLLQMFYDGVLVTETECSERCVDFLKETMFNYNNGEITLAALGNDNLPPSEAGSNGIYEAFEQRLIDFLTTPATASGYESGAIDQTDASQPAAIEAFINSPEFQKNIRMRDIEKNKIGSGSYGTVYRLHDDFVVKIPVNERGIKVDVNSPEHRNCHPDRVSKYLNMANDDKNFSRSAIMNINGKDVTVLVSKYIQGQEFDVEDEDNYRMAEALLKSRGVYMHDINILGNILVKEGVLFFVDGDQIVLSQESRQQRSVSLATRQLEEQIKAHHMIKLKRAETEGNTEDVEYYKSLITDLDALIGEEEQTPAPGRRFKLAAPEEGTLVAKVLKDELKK

| Molecule | radioactive kinase assay, SDS-PAGE autoradiography (SteC1-457) | Kd [1] |
| --- | --- | --- |
| Nc1ncnc2c1ncn2[C@@H]1O[C@H](COP(=O)(O)OP(=O)(O)OP(=O)(O)O)[C@@H](O)[C@H]1O [ATP] | SteC1-457 mediated phosphorylation of MYL12A |  |
| B1 |  | 7.9 µM |
